# Assay results from patent publication US11000537B2, “Composition comprising novel ginsenoside” (AMOREPACIFIC CORPORATION, priority 2018, dated 2021).
# Legend:
# SH-SY5Y cells = test: cytotoxicity, Cell Counting Kit (CCK)-8; type: cell-based; settings: 0.1, 1, 5, 10, 20 and 50 μM, FIG. 17
# Description: 10 μl of the CCK-8 reagent was added to the culturing SH-SY5Y cells (Dojindo, Md., USA) with reference to a 96-well plate, and left at 37° C. for 2 hours, and then the absorbance was measured at 450 nm. The cell viability was marked as a percentage (%) of the absolute optical density of each sample relative to the untreated sample. At this time, the concentration of the novel ginsenoside GS #10, which is an example of the present disclosure, contained in the medium in which the cells were cultured was 0.1, 1, 5, 10, 20, and 50 μM, respectively.
# 3T1-L1 adipocytes = test: glucose uptake (glucose transport) in differentiated adipocytes; type: cell-based; settings: 1, 10 μM; compared with ginsenosides Rg1, Rg3, Rb1; FIG. 16
# SREBP1a = SREBP1a gene expression in HepG2 (qPCR); type: cell-based; settings: 10 μM, 24 hours, FIG. 30
# Description: The hepatocyte cell line HepG2 purchased from the International Center for Biological Resources (ATCC) were placed in Dulbecco's Modified Eagle's Medium (Sigma) to which 10% fetal bovine serum (Hyclone) and 1% penicillin/streptomycin (Sigma) were added, and cultured in a 5% CO2 incubator. As a positive control, Simvastatin (Sigma Aldrich; St. Louis, Mo.), which is known as a lipid lowering agent of the HMG-CoA reductase inhibitor family and reduces cholesterol production in the blood, was used. For the experiment, seven types of ginsenoside (GS #01-GS #06, GS #10; 10 μM each) extracted from Ginseng seeds were treated for 24 hours, and the cells were collected. RNA was extracted using Trizol™ reagent (Thermo Fisher Scientific) and cDNA was synthesized using RevertAid™ 1st strand cDNA synthesis kit (Thermo Fisher Scientific). Bio-Rad's CFX96 real-time quantitative PCR (qPCR) instrument was used to observe the expression of HMG-CoA (3-hydroxy-3-methyl-glutaryl-coenzyme A) reductase, a key gene for cholesterol synthesis. In the same way, LDL (low-density lipoprotein) was absorbed into cells, and the expression of LDL receptor (LDLR), which serves to lower blood cholesterol levels, was observed.
# LDLR is controlled by the SREBP1a gene. […]
# [1] = test system: aP2 (Adipocyte protein 2); test: aP2 adipocyte marker gene expression (qPCR); type: cell-based
# Description: The adipocyte cell 3T3-L1 purchased from the International Center for Biological Resources (ATCC) were placed in Dulbecco's Modified Eagle's Medium (Sigma) to which 10% fetal bovine serum (Hyclone) and 1% penicillin/streptomycin (Sigma) were added, and cultured in a 5% CO2 incubator. In order to differentiate preadipocytes into adipocytes, the cells were filled in a culture plate and cultured. After 48 hours, the cells were replaced with Dulbecco's modified eagle medium (DMEM) to which 10% of fetal bovine serum (Hyclone), 0.5 mM of 3-isobutyl-1-methylxanthine (Sigma), 1 μM of dexamethasone (Sigma), 5 μg/ml of insulin (Sigma), 1% of penicillin/streptomycin (Sigma) were added and further cultured for 48 hours. During 48 hours of culture, seven types of ginsenoside reagents (GS #01-GS #06, GS #10) extracted from Ginseng seeds were treated at 10 μM each to affect adipocyte differentiation. […]
# After the differentiation of adipocytes in the same manner as above, the expressions of PPARγ (Peroxisome proliferator-activated receptor gamma), aP2 (Adipocyte protein 2) and CD36 were observed as adipocyte marker genes. […] Bio-Rad's CFX96 real-time quantitative PCR (qPCR) instrument was used to quantify the expression levels of each gene. […]
# α-glucosidase = α-glucosidase enzyme activity inhibition; type: biochemical
# Description: As a polysaccharide degrading enzyme, pancreatic α-amylase and α-glucosidase were purchased from Sigma, and the enzyme activity of novel ginsenoside GS #10, which is an example of the present disclosure, isolated from Ginseng seed extract and ginsenosides GS #01-GS #06, which are comparative examples of the present disclosure, was measured. In order to measure α-amylase activity, enzyme solution was prepared by dissolving BSA 0.1 g, 0.01 g/L NaN3, α-amylase 0.2857 g in 50 mL of PBS (phosphate buffered saline), and 5 mM of p-nitrophenyl-α-D-maltopentoglycoside was dissolved in another PBS to make a substrate solution. 0.1 mL of the test substance was added to 0.5 mL of the enzyme solution, and then the initial absorbance was measured at 405 nm. After adding 0.5 mL of the substrate solution and reacting it for 5 minutes, the absorbance was measured again. The change in enzyme activity was measured by the difference in absorbance between the two reactions. The method for measuring α-glucosidase activity is the same as the method for measuring α-amylase activity, and differs only in α-glucosidase and substrate (p-nitrophenyl-α-D-glucopyranoside). As a positive control to observe the inhibition of enzyme activity, acarbose, which is an α-amylase inhibitor and α-glucosidase inhibitor derived from wheat seed sold by Sigma, was used.
compound,measurement,setting,value
"CC1(C)C(=O)CC[C@@]2(C)C1[C@@H](O[C@H]1OC(CO)[C@H](O)C(O)C1O[C@H]1OC(CO)[C@H](O)C(O)C1O)C[C@]1(C)C2C[C@@H](O)C2C([C@]3(C)CC[C@H](C(C)(C)O)O3)CC[C@]21C (stereo partly drawn) [GS #10, (20S,24R)-6-O-β-D-glucopyranosyl(1→2)-β-D-glucopyranoside-dammar-3-one-20,24-epoxy-6a,12b,25-triol]",cytotoxicity (cell viability),SH-SY5Y cells,did not exhibit cytotoxicity up to 50 μM
same,glucose transport ability,3T1-L1 adipocytes,much superior
same,expression of SREBP1a,SREBP1a,did not inhibit the expression of SREBP1a but rather tended to increase the expression thereof
same,"adipocyte differentiation inhibition, aP2 gene expression","[1]; 1 μM and 10 μM, compared with Rg1, Rg3, Rb1, FIG. 40",far superior in adipocyte differentiation inhibition
same,"adipocyte differentiation inhibition, aP2 gene expression","[1]; 10 μM, FIG. 36",more effective in inhibiting the adipocyte differentiation
same,α-glucosidase activity inhibitory effect,"α-glucosidase; 1, 10 μM, compared with ginsenosides Rg1, Rg3, Rb1, FIG. 15",much superior
same,α-glucosidase activity inhibitory effect,"α-glucosidase; Test Example 1, FIG. 12, ginseng seed ginsenosides compared",high inhibitory effect on α-glucosidase activity
